This is an account of results in patent US9258995B2, “Organ cold storage composition and methods of use” (BOARD OF TRUSTEES OF THE UNIVERSITY OF ARKANSAS, priority 2009, dated 2016).

Structures are written as SMILES.

The test system of data set [1] is rat kidneys. The data set is described as follows: Periodic acid-Schiff morphological assessment of renal injury during CS. The note with it: 4 h CS, 100 μM. As to the method: (§1) All animals were treated according to the National Institutes of Health Guide for the Care and Use of Laboratory Animals and the University of Arkansas for Medical Sciences Institutional Animal Care and Use Committee guidelines. Male Fischer 344 inbred rats (Charles Rivers Laboratories, Inc., Wilmington, Mass.) weighing between 250 and 300 g were anesthetized with ethrane, followed by shaving and prepping with betadine. […] Bulldog clamps were placed on the aorta and vena cava (proximal and distal to the renal vessels) to prevent blood flow to the kidneys. A 22-gauge surgical needle was used to puncture the rat's aorta to flush the renal grafts with saline (10 ml per kidney) using a small catheter. Once the kidneys started to turn light brown (perfusion), another vent was formed in the vena cava to allow blood flow from the kidneys. Once both kidneys were completely flushed, the right kidney was recovered and served as a control (group 1), and the left kidney was exposed to CS alone for 4 h at 4° C. […]
Renal sections were assessed for tissue injury using the periodic acid-Schiff reaction. […] Morphological evaluation of tubular dilation, brush border loss, and cellular debris/tubular cast formation were performed blindly with light microscopy and assessed semiquantitatively according to the following scoring system: 0, no changes; 1, mild changes; 2, moderate changes, and 3, severe changes.

For data set [2], the system named is NRK cells. The data set is described as follows: LDH cytotoxicity assay, CS and CS plus rewarming. The data set is classed as cell-based. The note with it: 1 μM. As to the method:
(§2) Normal rat kidney proximal tubular cells (NRK-52E; American Type Culture Collection, Manassas, Va.) were maintained in six-well 100 or 150-mm, or 150-mm plates in a humidified incubator gassed with 5% CO2 and 95% air at 37° C. in DMEM (Invitrogen, Carlsbad, Calif.) containing 5% fetal calf serum (FCS). Cells were grown to 60% confluence and divided into four treatment groups: 1) untreated (Untx), 2) CS, 3) CS+MitoQ, and 4) CS+DecylTPP. Untreated cells remained at 37° C. in DMEM containing 5% FCS (group 1). CS was initiated by washing cells with cold PBS (Invitrogen) twice and storing them in UW/Viaspan solution alone (4 h at 4° C.) (group 2), CS+MitoQ (1 μM) (group 3), or CS+DecylTPP (1 μM) (group 4). In separate experiments, cells were exposed to CS plus RW by replacing UW solution alone or UW solution containing MitoQ or DecylTPP with DMEM containing 5% FCS overnight (18 h at 37° C.).
Cell cytotoxicity was determined using the LDH-Cytotoxicity Assay Kit II (Biovision Research Products, Mountain View, Calif.) according to the manufacturer's instructions. Absorbance was measured at 450 nm using a SpectraMax 190 microplate reader and SpectraMax software (Molecular Devices, Sunnyvale, Calif.). Renal cell death was determined using TUNEL staining. Kidney sections were deparaffinized, rehydrated, and exposed to antigen retrieval (20-min incubation at 95° C. with 10 mM sodium citrate buffer, pH 6.0) followed by washing with distilled water and quenching of endogenous peroxidase. Sections were immersed in TdT labeling buffer and then incubated in a humidified chamber with the labeling reaction mix from the TAGS 2 TdT-DAB In Situ Apoptosis Detection kit (Trevigen, Inc., Gaithersburg, Md.) for 1 h at room temperature. The reaction was stopped with TdT stop buffer, and slides were subsequently washed with PBS. Sections were incubated for 10 min with streptavidin-HRP followed by development with diaminobenzidine solution, counterstaining with Mayer's hematoxylin, dehydration, and mounting with Cytoseal-60. The amount of cell death was calculated by averaging the number of cells positive for TUNEL (brown staining) in 10 different fields (cortex and medulla) (20×). All images were taken at equal exposure times (40×oil).

For data set [3], the system named is mitochondrial respiratory complex I. The data set is described as follows: Mitochondrial respiratory complex activity, NRK cell mitochondria after CS. The data set is classed as cell-based, rat. The note with it: NRK cells, 4-h CS, 1 μM. The procedure:
as §2
(§3) NRK cell and rat kidney mitochondria were isolated by centrifugation on a sucrose density gradient. The activity of mitochondrial respiratory complexes I, II, III, or IV were assayed spectrophotometrically using 100 μg of mitochondrial protein at 30° C. as previously described.

Data set [4] concerns mitochondrial respiratory complex II. Described as above. The data set is classed as cell-based, rat. The note with it: NRK cells, 4-h CS, 1 μM. As to the method: as §2, §3
In data set [5] the test system is NRK cells. The data set is described as follows: Nitrotyrosine immunocytochemistry during CS. The data set is classed as cell-based, rat. The note with it: 4 h CS, 1 μM. The procedure:
as §2
(§4) NRK cells (groups 1-4) were assessed for nitrotyrosine formation as previously described. […] Nitrotyrosine staining was evaluated and captured with equal exposure times using a Nikon Eclipse 800 microscope (40×oil). Images were quantified by averaging the mean intensity fluorescence of five random cells in three different fields using Nikon N is Elements software. Renal tissue sections were assessed for the presence of nitrotyrosine protein adducts by nitrotyrosine immunohistochemistry. […]

The test system of data set [6] is rat kidneys. Description: Nitrotyrosine immunohistochemistry during CS. The following applies: 4 h CS, 100 μM. As to the method:
as §1, with “kidneys.” for “kidneys. Once both kidneys were completely flushed, the right kidney was recovered and served as a control (group 1), and the left kidney was exposed to CS alone for 4 h at 4° C.”
as §4

Consider `COC1=C(OC)C(=O)C(CCCCCCCCCC[P+](c2ccccc2)(c2ccccc2)c2ccccc2)=C(C)C1=O` [MitoQ, mitoquinone], for which, in the data set on rat kidneys [1], the “renal histology / renal injury (periodic acid-Schiff staining)” value was “improved renal histology significantly”. The “decrease of cell death (LDH cytotoxicity)” value in the data set with NRK cells [2] (CS alone) and in the data set on NRK cells [2] (CS.RW) was “approximately 2 fold” in each case. In addition, the “complex I inactivation” value in data set [3] was “completely prevented”. Also, the “complex II inactivation” value in data set [4] is “completely prevented”. For the same molecule, the “attenuation of nitrotyrosine formation” value in the data set with NRK cells [5] was around 2 fold. Also, in the data set with rat kidneys [6], the “nitrotyrosine formation (immunohistochemistry)” value is “less nitrotyrosine formation”.
